This note sets out measurements from patent US20240343728A1, “COMPOUNDS THAT INHIBIT PI3K ISOFORM ALPHA AND METHODS FOR TREATING CANCER” (Scorpion Therapeutics, Inc., priority 2021, published 2024).

Structures are written as SMILES.

For this assay, the system named is T47D pAKT. In words: Homogenous Time-Resolved Fluorescence (HTRF) Assay pAKT-T47D. Format: cell-based. The following applies: Homo sapiens; T47D.1 cell line, PI3Kα H1047R mutation present, HTRF detection pAKT (S473), timepoint 1 hour. Here is the method: Homogenous Time-Resolved Fluorescence (HTRF) Assay—pAKT-T47D
Compounds were assayed using homogeneous time-resolved fluorescence (HTRF).
Gibco RPMI 1640 Medium, no phenol red; Gibco RPMI 1640 Medium; Gibco Trypsin-EDTA (0.5%), no phenol red; Gibco DPBS; Trypan blue solution 0.4% (Corning); Avantor Seradigm Premium Grade Fetal Bovine Serum (FBS); Greiner 784080-384 well TC treated white plates; pAKT (Ser473) HTRF; Gibco Insulin, human recombinant, zinc solution; Gibco Recovery Cell Culture Freezing Medium; Countess II FL Automated Cell Counter (ThermoFisher); Countess II Slides (ThermoFisher); Microscope; and PHERAstar FSX Microplate Reader (BMG LABTECH, Inc.).
The scinamic cell line ID was T47D.1, the HTRF detection was pAKT (S473), a PI3Kα H1047R mutation was present, the seeding density was 5000, the timepoint was 1 hour, and the medium used was RPMI+10% FBS (no phenol red)+0.2 units/ml bovine insulin.
The procedure was as follows: • 1. Prepared ARP: • a. Stamped 12.5 nL from 10 mM source plate to destination plate using Echo. Sealed plate immediately and froze at −20° C. if it was not used on the same day. • b. If a frozen ARP was used, the plate was thawed and spun at 1000 rpm×1 min. • 2. Preparation of cells (adherent): • a. Aspirated media from cells. Washed cells with sterile 1×PBS. Aspirated PBS and added appropriate amount of Trypsin. • b. Once cells were fully trypsinized, added appropriate media to resuspend cells. Transferred cells to a 15 mL or 50 mL conical tube. • c. Counted cells on the Countess II Cell Counter. • 3. Plating of cells: • a. Prepared cells at appropriate plating density. Dispensed 12 μL of diluted cells per well of a Greiner 784080-384 well TC treated white plate using a Multidrop Combi to columns 1-23. Added 12 uL of appropriate phenol free media only to column 24. • b. Placed plates in 37° C. tissue culture incubator for appropriate treatment time (refer to “Assay” table). • 4. Prepared HTRF Lysis Buffer • a. Calculate the amount of HTRF lysis buffer master mix needed to perform the desired experiments plus any extra dead volume required for dispensing (4 μL required per well). Dilute the Blocking Reagent into 4× Lysis Buffer at a ratio of 1:25 (i.e. 0.1 mL Blocking Reagent Solution plus 2.4 mL 4× Lysis Buffer). • b. Add 4 uL Lysis buffer master mix to all wells with sample or DMSO. Centrifuge the plates for 1 minute at 1000 rpm. • c. Incubate at room temperature for 30 minutes. • 5. Prepared HTRF Antibody • a. Calculated the amount of HTRF antibody master mix needed to perform the desired experiments plus any extra dead volume required for dispensing ([…]). Eu Cryptate antibody and d2 antibody were added to detection buffer each at a ratio of 1:40 (i.e. 100 μL Eu Cryptate+100 μL d2 Cryptate+3800 μL detection buffer). • b. 4 μL of antibody master mix was added to each well including the media only column 24. • c. Centrifuged the plates for 1 minute at 1000 rpm. Placed lid on and created a “humidity chamber” by placing the plates into a ziplock bag with wet paper towels or something similar and incubated overnight at room temperature, keeping away from light.
• 6. Measured on the PHERAstar/Envision using the HTRF protocol. When plates were read, all wells were read.
The compound `Cc1c(C(Nc2nc3cc(S(C)(=O)=O)ccc3[nH]2)C(F)(F)F)oc2ccc(F)cc12` (racemic) [Compound 6b, 5-(methylsulfonyl)-N-(2,2,2-trifluoro-1-(5-fluoro-3-methylbenzofuran-2-yl)ethyl)-1H-benzo[d]imidazol-2-amine] showed an IC50 of 200 to 500 nM.

As to `Cc1c([C@@H](Nc2nc3ccc(C#N)cc3[nH]2)C(C)C)oc2ccc(F)cc12` [Compound 1, (S)-2-((1-(5-fluoro-3-methylbenzofuran-2-yl)-2-methylpropyl)amino)-1H-benzo[d]imidazole-6-carbonitrile], the IC50 is no less than 500 nM. `Cc1c([C@@H](Nc2nc3ccc(C(N)=O)cc3[nH]2)C(C)C)oc2ccc(F)cc12` [Compound 2, (S)-2-((1-(5-fluoro-3-methylbenzofuran-2-yl)-2-methylpropyl)amino)-1H-benzo[d]imidazole-6-carboxamide] returned an IC50 of 200 to 500 nM.

In turn, `Cc1c([C@@H](Nc2nc3ccc(S(N)(=O)=O)cc3[nH]2)C(C)C)oc2ccc(F)cc12` [Compound 3, (S)-2-((1-(5-fluoro-3-methylbenzofuran-2-yl)-2-methylpropyl)amino)-1H-benzo[d]imidazole-6-sulfonamide] showed an IC50 of less than 200 nM.

As to `Cc1c([C@@H](Nc2nc3ccc(S(C)(=O)=O)cc3[nH]2)C(C)C)oc2ccc(F)cc12` [Compound 4, (S)-N-(1-(5-fluoro-3-methylbenzofuran-2-yl)-2-methylpropyl)-6-(methylsulfonyl)-1H-benzo[d]imidazol-2-amine], the IC50 is less than 200 nM. The compound `Cc1c([C@@H](Nc2nc3cc(S(C)(=O)=O)cnc3[nH]2)C(F)(F)F)oc2ccc(F)cc12` [Compound 5a, (R)-6-(methylsulfonyl)-N-(2,2,2-trifluoro-1-(5-fluoro-3-methylbenzofuran-2-yl)ethyl)-3H-imidazo[4,5-b]pyridin-2-amine] displayed an IC50 of 200 to 500 nM. In turn, `Cc1c([C@H](Nc2nc3nc(N)ncc3[nH]2)C(F)(F)F)oc2ccc(F)cc12` [Compound 7b, (S)-N^8-(2,2,2-trifluoro-1-(5-fluoro-3-methylbenzofuran-2-yl)ethyl)-7H-purine-2,8-diamine] showed an IC50 of 200 to 500 nM.
